The record followed here is patent US4303659A, “Schistosomicidal compositions” (Pfizer Inc., priority 1979, dated 1981).

The experiment has as its system Puerto Rican strain of Schistosoma mansoni. The experiment can be described thus: Effectiveness in treatment of schistosomiasis in infected mice (worm kill after oral dosing, perfusion and liver count 14 days post treatment). The settings on record: 336 h, oral gavage. The experiment is classed as in vivo. The procedure: Male mice are infected with 100 cercariae of Schistosoma mansoni and used 8-10 weeks post infection. The test compound(s) are suspended (at the desired concentration level) in a 10% solution of Cremophor EL in 0.2 M phosphate buffer at pH 7.0 (Cremophor EL is the registered trademark name of Badische Anilin und Soda-Fabrik of Ludwigshafen, West Germany for glycerol-polyethylene glycolricinoleate).
The resulting mixture is then administered to the mice by an oral gavage needle, using 0.3 ml. of the above suspension for a 30-gram animal. Fourteen days post treatment, the mice are killed by cervical dislocation and living worms are recovered from the blood vessels by perfusion. The liver is then removed and compressed between two glass plates, and the encapsulated (i.e., dead) worms are counted.
Effective doses required to kill 50% and 99% of male worms (i.e., ED50 and ED99 values, respectively) are calculated from the regression line of the dose response data.

Structures are written as SMILES. Like-named read-outs stand apart in the source and are kept apart here.

A word on the ED50: it is the dose at which the effect has come halfway, by size or by number of responders. As for `CC(C)NCC1CCc2cc(CO)c([N+](=O)[O-])cc2N1` (racemic) [Oxamniquine, dl-6-hydroxymethyl-2-isopropylaminomethyl-7-nitro-1,2,3,4-tetrahydroquinoline], the ED50 was determined as 39 mg/kg (compound alone, dose to kill 50% of male worms) and 8.6 mg/kg (oxamniquine in combination with 25 mg./kg. of praziquantel, 50% of male worms killed). For the same compound, the ED99 was 89 mg/kg (compound alone, dose to kill 99% of male worms) and 16.6 mg/kg (oxamniquine in combination with 25 mg./kg. of praziquantel, 99% of male worms killed).

For the compound `O=C(C1CCCCC1)N1CC(=O)N2CCc3ccccc3C2C1` (stereo not drawn) [Praziquantel, 2-cyclohexylcarbonyl-4-oxo-1,2,3,6,7,11b-hexahydro-4H-pyrazino [2,1a]isoquinoline], the median effective dose (ED50) was determined as 156 mg/kg (compound alone, dose to kill 50% of male worms, read-out: ED50) and 4.9 mg/kg (praziquantel in combination with 12.5 mg./kg. of oxamniquine, 50% of male worms killed, read-out: ED50).
